In paper PMC4587935, “Structure and Sialyllactose Binding of the Carboxy-Terminal Head Domain of the Fibre from a Siadenovirus, Turkey Adenovirus 3” (PLoS ONE, 2015):

Assays:
[1] = molecular target: TAdV-3 fibre head (avirulent) (Turkey adenovirus 3, UniProt A0ABF7PFF5); assay: Isothermal titration calorimetry (ITC), avirulent fibre head; format: binding, turkey adenovirus 3 (TAdV-3); settings: 25°C
Experimental: (§1) Isothermal titration calorimetry (ITC) was performed at 25°C with a Microcal VP-ITC microcalorimeter (GE Healthcare, Madrid, Spain). The proteins were exhaustively dialyzed against the appropriate buffer (10 mM MES-NaOH pH 6.0 or 20 mM Tris-HCl, 100 mM NaCl pH 7.2), and sialyllactose solutions were prepared in the final dialysate. Titrations were performed by stepwise injections of the 3'- or 6'-sialyllactose-containing solution (21–40 mM) into the reaction cell loaded with the protein at concentrations of 78–474 μM. When required, a second set of injections followed the first one after refilling the injection pipette with the same sialyllactose solution. The CONCAT32 (GE Healthcare) program was used to concatenate the raw data of both series. The heat of ligand dilution was determined separately and subtracted from the total heat produced following each injection. Protein concentrations were determined spectrophotometrically at 280 nm using the predicted monomeric molar extinction coefficient (10,095 OD cm^-1 M^-1). Titration data were analyzed with the ORIGIN software (GE Healthcare).

[2] = molecular target: T1, TAdV-3 fibre head (virulent) (Turkey adenovirus 3, UniProt Q9YUQ4); assay: Isothermal titration calorimetry (ITC), virulent fibre head; format: binding, turkey adenovirus 3 (TAdV-3); settings: 25°C
T1 sequence (Q9YUQ4 304-454): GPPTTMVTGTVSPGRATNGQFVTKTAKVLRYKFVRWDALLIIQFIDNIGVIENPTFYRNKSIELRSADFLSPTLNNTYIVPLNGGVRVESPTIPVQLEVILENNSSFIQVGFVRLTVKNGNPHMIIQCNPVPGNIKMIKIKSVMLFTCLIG
Experimental: as §1

[3] = tested on: His-tagged TAdV-3 fibre head protein; assay: Glycan microarray binding assay; parameters: species or system turkey adenovirus 3 (TAdV-3); settings: for fluorescence intensity on glycan microarray: binding threshold approximately 1,600 RFU (five times background); for inhibition of fibre head binding to the glycan microarray: in the presence of 100 mM sugar
Experimental: The proteins were profiled on neoglycoconjugate microarrays to identify potential glycan ligands for TAdV-3 fibre head proteins. The microarrays were constructed as previously described and presented 71 different simple to complex glycans on glycoproteins or attached to protein backbones through linkers (S1 Table). Several viral protein concentrations were titrated in Tris-buffered saline supplemented with Ca^2+ and Mg^2+ ions (TBS; 20 mM Tris-HCl, 100 mM NaCl, 1 mM CaCl2, 1 mM MgCl2, pH 7.2) and with 0.05% Tween 20 (TBS-T). It was determined that 10 μg/ml in TBS-T was the concentration for optimal signal to noise ratio. Similarly, the concentration of the anti-6XHis IgG-CF640R (Sigma Aldrich, Tres Cantos, Spain) monoclonal antibody for detection of viral protein binding was optimized and a 1 in 750 dilution in TBS-T was subsequently used.
Two-step incubations were carried out as previously described with minor modifications. First, the viral proteins were incubated on the microarray slides for 1 h at 23°C and 4 rpm. The microarray slides and gaskets were then separated while submerged under TBS-T, washed 3 times in TBS-T for 2 min each with gentle agitation in a Coplin jar, with a final 2 min wash in TBS. After centrifuging to dry the slides (1,500 rpm, 5 min), all subsequent steps were carried out in the dark. The microarray slides were incubated with the fluorescently labelled anti-6XHis IgG as in the first step, washed and dried by centrifugation and scanned immediately on an Agilent G2505 microarray scanner using the Cy5 channel (633 nm excitation, 80% PMT, 5 mm resolution). All experiments were carried out in triplicate and binding inhibition assays were performed in parallel in the presence of 100 mM galactose and lactose to verify specific binding. Data extraction and analysis was carried out as previously described. Binding was taken as above an experimental threshold of five times the background, which was approximately 1,600 relative fluorescence units (RFU) in this case.

[4] = tested on: avirulent TAdV-3 fibre head; assay: Saturation transfer difference NMR (STD-NMR), avirulent variant; format: binding, turkey adenovirus 3 (TAdV-3); settings: 1.5 mM ligand, 15 μM protein, phosphate pH 7.7, 298 K
Experimental: (§2) Saturation transfer difference nuclear magnetic resonance spectroscopy (STD-NMR) experiments were performed at 298 K in an AVANCE 500 MHz spectrometer (Bruker, Rivas Vaciamadrid, Spain) equipped with a 5 mm inverse probe head. STD experiments were performed in fully deuterated 10 mM potassium phosphate pH 7.7. Samples contained 1.5 mM of either 3'- or 6'-sialyllactose and 15 μM of either the virulent or the avirulent versions of TAdV-3 fibre head. The protein was saturated on-resonance at 0.5 ppm and off-resonance at 100 ppm with a train of Gaussian-shaped pulses of 50 ms each, totalling an irradiation time of 2 s. A T2 relaxation filter consisting of a 15 ms 5 kHz spin-lock was used to reduce the protein background signals. STD spectra were obtained by subtracting the on-resonance spectra from the off-resonance spectra. STD intensities were measured comparing each STD spectrum with the correspondent off-resonance spectrum and normalizing to the ligand peak receiving the highest degree of saturation (in all cases, the 5''-N-acetyl). The resonances of 3'- or 6'-sialyllactose were assigned by standard procedures (^1H-^1H TOCSY 70 ms, ^1H-^1H ROESY 600 ms and phase-sensitive ^1H-^13C HSQC). Data were analyzed with TOPSPIN (Bruker) and figures were made with MESTRENOVA (Mestrelab Research, Santiago de Compostela, Spain).

[5] = tested on: virulent TAdV-3 fibre head; assay: Saturation transfer difference NMR (STD-NMR), virulent variant; format: binding, turkey adenovirus 3 (TAdV-3); settings: 1.5 mM ligand, 15 μM protein, phosphate pH 7.7, 298 K
Experimental: as §2

[6] = molecular target: TAdV-3 fiber head mutant R368A (avirulent context) (Turkey adenovirus 3, UniProt A0ABF7PFF5, R368A); assay: biochemical; format: binding, turkey adenovirus 3 (TAdV-3)
[7] = molecular target: TAdV-3 fiber head mutant E392A (avirulent context) (Turkey adenovirus 3, UniProt A0ABF7PFF5, E392A); assay: biochemical; format: binding, turkey adenovirus 3 (TAdV-3)
[8] = molecular target: TAdV-3 fiber head mutant N407A (avirulent context) (Turkey adenovirus 3, UniProt A0ABF7PFF5, N407A); assay: biochemical; format: binding, turkey adenovirus 3 (TAdV-3)
[9] = molecular target: TAdV-3 fiber head mutant K421A (avirulent context); settings: ITC, 25°C, pH 6.0; n.o. = no binding observed
[10] = molecular target: TAdV-3 fiber head mutant K439A (avirulent context) (Turkey adenovirus 3, UniProt A0ABF7PFF5, K439A); assay: biochemical; format: binding, turkey adenovirus 3 (TAdV-3)
[11] = pH 6.0, three independent sites per trimer
[12] = 10 μg/ml protein in TBS-T pH 7.2

| Molecule | Kd [1, 11] [mM] | Kd ([1]; pH 7.2) [mM] | Kd [2, 11] [mM] | Kd ([2]; pH 7.2) [mM] | fluorescence intensity on glycan microarray [3, 12] | STD-NMR interaction (saturation transfer) [4] | STD-NMR interaction (saturation transfer) [5] | inhibition of fibre head binding to the glycan microarray [3] | also measured |
| --- | --- | --- | --- | --- | --- | --- | --- | --- | --- |
| CC(=O)NC1C(O)CC(OCC2OC(OC3C(CO)OC(O)C(O)C3O)C(O)C(O)C2O)(C(=O)O)OC1C(O)C(O)CO (stereo not shown) [6'-sialyllactose] | ~7 | ~23 | ~20 | ~28 | 6,100 RFU | saturation transfer was observed | saturation transfer was observed |  |  |
| OC[C@H]1O[C@@H](O[C@H]2[C@H](O)[C@@H](O)C(O)O[C@@H]2CO)[C@H](O)[C@@H](O)[C@H]1O (mixture of isomers) [lactose] |  |  |  |  |  |  |  | No binding inhibition |  |
| O=C[C@H](O)[C@@H](O)[C@H](O)CO [xylose] |  |  |  |  |  | no interaction with the proteins could be measured | no interaction with the proteins could be measured |  |  |
| CC(=O)NC1C(O)CC(OC2C(O)C(CO)OC(OC3C(CO)OC(O)C(O)C3O)C2O)(C(=O)O)OC1C(O)C(O)CO (stereo not shown) [3'-sialyllactose] | 3.64 ± 0.01 | ~24 | 5.5 ± 0.1 | ~37 | 5,000 RFU | saturation transfer was observed | saturation transfer was observed |  | - ΔH ([1]; pH 6.0): 4.43 ± 0.01 kcal/mol of sites; - ΔS ([1]; pH 6.0): 3.70 ± 0.03 cal/mol of sites/deg; - ΔH ([2]; pH 6.0): 1.83 ± 0.03 kcal/mol of sites; - ΔS ([2]; pH 6.0): -4.19 ± 0.07 cal/mol of sites/deg; Kd [6]: 3.23 ± 0.03 mM; - ΔH ([6]; ITC, 25°C, pH 6.0): 3.86 ± 0.02 kcal/mol of sites; - ΔS ([6]; ITC, 25°C, pH 6.0): 1.54 ± 0.05 cal/mol of sites/deg; Kd [7]: ~20 mM; Kd [8]: 2.77 ± 0.04 mM; - ΔH ([8]; ITC, 25°C, pH 6.0): 4.66 ± 0.04 kcal/mol of sites; - ΔS ([8]; ITC, 25°C, pH 6.0): 3.9 ± 0.1 cal/mol of sites/deg; Kd [9]: n.o. ^d; Kd [10]: 3.2 ± 0.2 mM; - ΔH ([10]; ITC, 25°C, pH 6.0): 3.9 ± 0.1 kcal/mol of sites; - ΔS ([10]; ITC, 25°C, pH 6.0): 1.7 ± 0.2 cal/mol of sites/deg |
| transferrin: glycoprotein with 3'- and 6'-sialyl-N-acetyllactosamine terminal structures |  |  |  |  |  |  |  |  | binding on glycan microarray (in words) ([3]; 10 μg/ml protein in TBS-T pH 7.2, threshold five times background): did not bind |
| O=C[C@H](O)[C@@H](O)[C@@H](O)[C@H](O)CO [galactose] |  |  |  |  |  |  |  | No binding inhibition |  |
